Laboratory results: patent US9439432B2, “Phenylisoxazoline-based compound having herbicidal activity and use thereof” (MOGHU RESEARCH CENTER LTD, priority 2011, dated 2016)

Tested on: Corn
Assay: Pre-emergence treatment, phytotoxicity to corn
Type: in vivo
Details: 500 g/ha, 4 weeks after spraying, scale 0 to 10 (0: no effects, 10: complete death)
Experimental: (§1) A rectangular plastic pot having a surface area of 300 cm^2 was filled with sandy loam soil and mixed bed soil which were mixed at a ratio of 1:1, and then, barnyardrass (Echinochloa crusgalli), large crabgrass (Digitaria sanguinalis), blackgrass (Alopecurus myosuroides), and annual bluegrass (Poa annua), which are grass weeds, were seeded thereto. In a pot that was prepared as described above, seeds of corn, soybean, cotton, wheat, and rice were seeded. The pots were irrigated, and one day after, chemicals were sprayed thereto. The spraying was performed by using a track sprayer (R&D Sprayer, USA) equipped with a Teejet 8002 (Spraying Systems Co., USA) nozzle, and a spraying amount was adjusted at 300 L/ha. A spraying solution was prepared by dissolving test materials or references in acetone and adding the same amount of 0.2%(v/v) tween 20 aqueous solution thereto. Application rates were 500, 250, 125, and 62.5 g/ha. The pots were placed in a greenhouse in which during day, the temperature was maintained at a temperature of 25 to 30° C., and during night, the temperature was maintained at a temperature of 15 to 25° C., and the pots were periodically irrigated. Four weeks after the spraying the test materials or References, effects and phytotoxicity of the respective weeds and crops were evaluated in a scale of 0 to 10 (0: no effects, 10: complete death), and results thereof are shown in Table 4 below.

SMILES	Phytotoxicity, Corn
CC1(COCc2c(F)cccc2Cl)CC(c2ccccc2)=NO1 (stereo not drawn) [Reference H]	2

Tested on: Soybean
Assay: Pre-emergence treatment, phytotoxicity to soybean
Type: in vivo
Details: 500 g/ha, 4 weeks after spraying, scale 0 to 10 (0: no effects, 10: complete death)
Experimental: as §1

SMILES	Phytotoxicity, Soybean
CC1(COCc2c(F)cccc2Cl)CC(c2ccccc2)=NO1 (stereo not drawn) [Reference H]	0

Tested on: Cotton
Assay: Pre-emergence treatment, phytotoxicity to cotton
Type: in vivo
Details: 500 g/ha, 4 weeks after spraying, scale 0 to 10 (0: no effects, 10: complete death)
Experimental: as §1

SMILES	Phytotoxicity, Cotton
CC1(COCc2c(F)cccc2Cl)CC(c2ccccc2)=NO1 (stereo not drawn) [Reference H]	0

Tested on: Wheat
Assay: Pre-emergence treatment, phytotoxicity to wheat
Type: in vivo
Details: 500 g/ha, 4 weeks after spraying, scale 0 to 10 (0: no effects, 10: complete death)
Experimental: as §1

SMILES	Phytotoxicity, Wheat
CC1(COCc2c(F)cccc2Cl)CC(c2ccccc2)=NO1 (stereo not drawn) [Reference H]	0

Tested on: Rice
Assay: Pre-emergence treatment, phytotoxicity to rice
Type: in vivo
Details: 500 g/ha, 4 weeks after spraying, scale 0 to 10 (0: no effects, 10: complete death)
Experimental: as §1

SMILES	Phytotoxicity, Rice
CC1(COCc2c(F)cccc2Cl)CC(c2ccccc2)=NO1 (stereo not drawn) [Reference H]	0

Tested on: Echinochloa crusgalli
Assay: Pre-emergence treatment, herbicidal efficacy on barnyardgrass
Type: in vivo
Details: 62.5 g/ha, 4 weeks after spraying, scale 0 to 10
Experimental: as §1

SMILES	Herbicidal efficacy, Echinochloa crusgalli
CC1(COCc2c(F)cccc2Cl)CC(c2ccccc2)=NO1 (stereo not drawn) [Reference H]	0

Same assay, conditions: 125 g/ha, 4 weeks after spraying, scale 0 to 10

SMILES	Herbicidal efficacy, Echinochloa crusgalli
CC1(COCc2c(F)cccc2Cl)CC(c2ccccc2)=NO1 (stereo not drawn) [Reference H]	0

Same assay, conditions: 250 g/ha, 4 weeks after spraying, scale 0 to 10

SMILES	Herbicidal efficacy, Echinochloa crusgalli
CC1(COCc2c(F)cccc2Cl)CC(c2ccccc2)=NO1 (stereo not drawn) [Reference H]	2

Same assay, conditions: 500 g/ha, 4 weeks after spraying, scale 0 to 10 (0: no effects, 10: complete death)

SMILES	Herbicidal efficacy, Echinochloa crusgalli
CC1(COCc2c(F)cccc2Cl)CC(c2ccccc2)=NO1 (stereo not drawn) [Reference H]	9

Tested on: Digitaria sanguinalis
Assay: Pre-emergence treatment, herbicidal efficacy on large crabgrass
Type: in vivo
Details: 62.5 g/ha, 4 weeks after spraying, scale 0 to 10
Experimental: as §1

SMILES	Herbicidal efficacy, Digitaria sanguinalis
CC1(COCc2c(F)cccc2Cl)CC(c2ccccc2)=NO1 (stereo not drawn) [Reference H]	0

Same assay, conditions: 125 g/ha, 4 weeks after spraying, scale 0 to 10

SMILES	Herbicidal efficacy, Digitaria sanguinalis
CC1(COCc2c(F)cccc2Cl)CC(c2ccccc2)=NO1 (stereo not drawn) [Reference H]	0

Same assay, conditions: 250 g/ha, 4 weeks after spraying, scale 0 to 10

SMILES	Herbicidal efficacy, Digitaria sanguinalis
CC1(COCc2c(F)cccc2Cl)CC(c2ccccc2)=NO1 (stereo not drawn) [Reference H]	2

Same assay, conditions: 500 g/ha, 4 weeks after spraying, scale 0 to 10

SMILES	Herbicidal efficacy, Digitaria sanguinalis
CC1(COCc2c(F)cccc2Cl)CC(c2ccccc2)=NO1 (stereo not drawn) [Reference H]	10

Tested on: Poa annua
Assay: Pre-emergence treatment, herbicidal efficacy on annual bluegrass
Type: in vivo
Details: 62.5 g/ha, 4 weeks after spraying, scale 0 to 10
Experimental: as §1

SMILES	Herbicidal efficacy, Poa annua
CC1(COCc2c(F)cccc2Cl)CC(c2ccccc2)=NO1 (stereo not drawn) [Reference H]	0

Same assay, conditions: 125 g/ha, 4 weeks after spraying, scale 0 to 10

SMILES	Herbicidal efficacy, Poa annua
CC1(COCc2c(F)cccc2Cl)CC(c2ccccc2)=NO1 (stereo not drawn) [Reference H]	0

Same assay, conditions: 250 g/ha, 4 weeks after spraying, scale 0 to 10

SMILES	Herbicidal efficacy, Poa annua
CC1(COCc2c(F)cccc2Cl)CC(c2ccccc2)=NO1 (stereo not drawn) [Reference H]	2

Same assay, conditions: 500 g/ha, 4 weeks after spraying, scale 0 to 10

SMILES	Herbicidal efficacy, Poa annua
CC1(COCc2c(F)cccc2Cl)CC(c2ccccc2)=NO1 (stereo not drawn) [Reference H]	8

Tested on: Alopecurus myosuroides
Assay: Pre-emergence treatment, herbicidal efficacy on blackgrass
Type: in vivo
Details: 62.5 g/ha, 4 weeks after spraying, scale 0 to 10
Experimental: as §1

SMILES	Herbicidal efficacy, Alopecurus myosuroides
CC1(COCc2c(F)cccc2Cl)CC(c2ccccc2)=NO1 (stereo not drawn) [Reference H]	0

Same assay, conditions: 125 g/ha, 4 weeks after spraying, scale 0 to 10

SMILES	Herbicidal efficacy, Alopecurus myosuroides
CC1(COCc2c(F)cccc2Cl)CC(c2ccccc2)=NO1 (stereo not drawn) [Reference H]	0

Same assay, conditions: 250 g/ha, 4 weeks after spraying, scale 0 to 10

SMILES	Herbicidal efficacy, Alopecurus myosuroides
CC1(COCc2c(F)cccc2Cl)CC(c2ccccc2)=NO1 (stereo not drawn) [Reference H]	2

Same assay, conditions: 500 g/ha, 4 weeks after spraying, scale 0 to 10

SMILES	Herbicidal efficacy, Alopecurus myosuroides
CC1(COCc2c(F)cccc2Cl)CC(c2ccccc2)=NO1 (stereo not drawn) [Reference H]	9

Tested on: Corn
Assay: Post-emergence treatment, phytotoxicity to corn
Type: in vivo
Details: post-emergence (about 3 leaf stage), 1,000 g/ha, 4 weeks after spraying, scale 0 to 10 (0: no effects, 10: complete death)
Experimental: as §1
(§2) Pots containing crops and weeds were prepared in the same manner as in Example 7, and then, in the second week in which crops and weeds entered into about 3 leaf stage, the test materials and the references were sprayed thereto in the same manner as described above. The rates were 1,000, 500, 250, and 125 g/ha. Four weeks after the spraying of the test materials or the references, herbicidal efficacy and phytotoxicity to the respective weeds and crops were evaluated in a scale of 0 to 10 (0: no effects, 10: complete death).

SMILES	Phytotoxicity, Corn
CC1(COCc2c(F)cccc2Cl)CC(c2ccccc2)=NO1 (stereo not drawn) [Reference H]	0

Tested on: Soybean
Assay: Post-emergence treatment, phytotoxicity to soybean
Type: in vivo
Details: post-emergence (about 3 leaf stage), 1,000 g/ha, 4 weeks after spraying, scale 0 to 10 (0: no effects, 10: complete death)
Experimental: as §1, §2

SMILES	Phytotoxicity, Soybean
CC1(COCc2c(F)cccc2Cl)CC(c2ccccc2)=NO1 (stereo not drawn) [Reference H]	0

Tested on: Cotton
Assay: Post-emergence treatment, phytotoxicity to cotton
Type: in vivo
Details: post-emergence (about 3 leaf stage), 1,000 g/ha, 4 weeks after spraying, scale 0 to 10 (0: no effects, 10: complete death)
Experimental: as §1, §2

SMILES	Phytotoxicity, Cotton
CC1(COCc2c(F)cccc2Cl)CC(c2ccccc2)=NO1 (stereo not drawn) [Reference H]	0

Tested on: Wheat
Assay: Post-emergence treatment, phytotoxicity to wheat
Type: in vivo
Details: post-emergence (about 3 leaf stage), 1,000 g/ha, 4 weeks after spraying, scale 0 to 10 (0: no effects, 10: complete death)
Experimental: as §1, §2

SMILES	Phytotoxicity, Wheat
CC1(COCc2c(F)cccc2Cl)CC(c2ccccc2)=NO1 (stereo not drawn) [Reference H]	0

Tested on: Rice
Assay: Post-emergence treatment, phytotoxicity to rice
Type: in vivo
Details: post-emergence (about 3 leaf stage), 1,000 g/ha, 4 weeks after spraying, scale 0 to 10 (0: no effects, 10: complete death)
Experimental: as §1, §2

SMILES	Phytotoxicity, Rice
CC1(COCc2c(F)cccc2Cl)CC(c2ccccc2)=NO1 (stereo not drawn) [Reference H]	0

Tested on: Echinochloa crusgalli
Assay: Post-emergence treatment, herbicidal efficacy on barnyardgrass
Type: in vivo
Details: post-emergence, 125 g/ha, 4 weeks after spraying, scale 0 to 10
Experimental: as §1, §2

SMILES	Herbicidal efficacy, Echinochloa crusgalli
CC1(COCc2c(F)cccc2Cl)CC(c2ccccc2)=NO1 (stereo not drawn) [Reference H]	0

Same assay, conditions: post-emergence, 250 g/ha, 4 weeks after spraying, scale 0 to 10

SMILES	Herbicidal efficacy, Echinochloa crusgalli
CC1(COCc2c(F)cccc2Cl)CC(c2ccccc2)=NO1 (stereo not drawn) [Reference H]	0

Same assay, conditions: post-emergence, 500 g/ha, 4 weeks after spraying, scale 0 to 10

SMILES	Herbicidal efficacy, Echinochloa crusgalli
CC1(COCc2c(F)cccc2Cl)CC(c2ccccc2)=NO1 (stereo not drawn) [Reference H]	0

Same assay, conditions: post-emergence, 1,000 g/ha, 4 weeks after spraying, scale 0 to 10

SMILES	Herbicidal efficacy, Echinochloa crusgalli
CC1(COCc2c(F)cccc2Cl)CC(c2ccccc2)=NO1 (stereo not drawn) [Reference H]	4

Tested on: Digitaria sanguinalis
Assay: Post-emergence treatment, herbicidal efficacy on large crabgrass
Type: in vivo
Details: post-emergence, 125 g/ha, 4 weeks after spraying, scale 0 to 10
Experimental: as §1, §2

SMILES	Herbicidal efficacy, Digitaria sanguinalis
CC1(COCc2c(F)cccc2Cl)CC(c2ccccc2)=NO1 (stereo not drawn) [Reference H]	0

Same assay, conditions: post-emergence, 250 g/ha, 4 weeks after spraying, scale 0 to 10

SMILES	Herbicidal efficacy, Digitaria sanguinalis
CC1(COCc2c(F)cccc2Cl)CC(c2ccccc2)=NO1 (stereo not drawn) [Reference H]	0

Same assay, conditions: post-emergence, 500 g/ha, 4 weeks after spraying, scale 0 to 10

SMILES	Herbicidal efficacy, Digitaria sanguinalis
CC1(COCc2c(F)cccc2Cl)CC(c2ccccc2)=NO1 (stereo not drawn) [Reference H]	1

Same assay, conditions: post-emergence, 1,000 g/ha, 4 weeks after spraying, scale 0 to 10

SMILES	Herbicidal efficacy, Digitaria sanguinalis
CC1(COCc2c(F)cccc2Cl)CC(c2ccccc2)=NO1 (stereo not drawn) [Reference H]	5

Tested on: Poa annua
Assay: Post-emergence treatment, herbicidal efficacy on annual bluegrass
Type: in vivo
Details: post-emergence, 125 g/ha, 4 weeks after spraying, scale 0 to 10
Experimental: as §1, §2

SMILES	Herbicidal efficacy, Poa annua
CC1(COCc2c(F)cccc2Cl)CC(c2ccccc2)=NO1 (stereo not drawn) [Reference H]	0

Same assay, conditions: post-emergence, 250 g/ha, 4 weeks after spraying, scale 0 to 10

SMILES	Herbicidal efficacy, Poa annua
CC1(COCc2c(F)cccc2Cl)CC(c2ccccc2)=NO1 (stereo not drawn) [Reference H]	0

Same assay, conditions: post-emergence, 500 g/ha, 4 weeks after spraying, scale 0 to 10

SMILES	Herbicidal efficacy, Poa annua
CC1(COCc2c(F)cccc2Cl)CC(c2ccccc2)=NO1 (stereo not drawn) [Reference H]	2

Same assay, conditions: post-emergence, 1,000 g/ha, 4 weeks after spraying, scale 0 to 10

SMILES	Herbicidal efficacy, Poa annua
CC1(COCc2c(F)cccc2Cl)CC(c2ccccc2)=NO1 (stereo not drawn) [Reference H]	4

Tested on: Alopecurus myosuroides
Assay: Post-emergence treatment, herbicidal efficacy on blackgrass
Type: in vivo
Details: post-emergence, 125 g/ha, 4 weeks after spraying, scale 0 to 10
Experimental: as §1, §2

SMILES	Herbicidal efficacy, Alopecurus myosuroides
CC1(COCc2c(F)cccc2Cl)CC(c2ccccc2)=NO1 (stereo not drawn) [Reference H]	0

Same assay, conditions: post-emergence, 250 g/ha, 4 weeks after spraying, scale 0 to 10

SMILES	Herbicidal efficacy, Alopecurus myosuroides
CC1(COCc2c(F)cccc2Cl)CC(c2ccccc2)=NO1 (stereo not drawn) [Reference H]	0

Same assay, conditions: post-emergence, 500 g/ha, 4 weeks after spraying, scale 0 to 10

SMILES	Herbicidal efficacy, Alopecurus myosuroides
CC1(COCc2c(F)cccc2Cl)CC(c2ccccc2)=NO1 (stereo not drawn) [Reference H]	0

Same assay, conditions: post-emergence, 1,000 g/ha, 4 weeks after spraying, scale 0 to 10

SMILES	Herbicidal efficacy, Alopecurus myosuroides
CC1(COCc2c(F)cccc2Cl)CC(c2ccccc2)=NO1 (stereo not drawn) [Reference H]	0
